Reference: patent US7612064B2, “Sulfopyrroles” (Takeda Pharmaceutical Company Limited, priority 2003, dated 2009)

Columns and labels:
[1] = Hoechst 33342 nuclear staining; format: cell-based; conditions: for Hoechst 33342 nuclear staining score, H460: H460 cells; for Hoechst 33342 nuclear staining score, HeLa: HeLa cells; for Hoechst 33342 nuclear staining score, Jily: Jily cells; for Hoechst 33342 nuclear staining score, Jurkat: Jurkat cells; for Hoechst 33342 nuclear staining score, MRC5: MRC5 cells; on Hoechst 33342 nuclear staining score, PBLs: key: 0: no activity; 1: weak activity comprising less than 50% of the cells; 2: strong activity comprising more than 50% of the cells;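 on all read-outs here: apoptotic nuclei scored 0 none 1 weak under 50% of cells 2 strong over 50% of cells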
Procedure, shortened: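 Cells were plated in 96 well tissue culture plates in 80 μl complete medium, with 3-5*10^3 cells per well for adherent lines and 8-10*10^3 for suspension lines. Adherent cells spread for 24 h before treatment, while suspension cells were treated right after seeding. Compounds were added in 20 μl complete medium containing max 5% DMSO.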

Jurkat = assay: MTS proliferation assay; format: cell-based, human; conditions: 72 h
Procedure, shortened: (§1)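 Cells were exposed for 72 h under culture conditions to test compounds at final concentrations of 10, 3, 1 and 0.3 μM, added in complete medium with at most 5% DMSO. MTS reagent was then added for a further 3 h, and absorbance was read at 492 nm.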

HeLa = assay: MTS proliferation assay; format: cell-based, human; conditions: 72 h
Procedure, shortened: as §1

Jily = assay: MTS proliferation assay; format: cell-based; conditions: 72 h
Procedure, shortened: as §1

MRC5 = assay: MTS proliferation assay; format: cell-based; conditions: MRC5, 72 h
Procedure, shortened: as §1

Row | Structure (SMILES) | Hoechst 33342 nuclear staining score, H460 ([1]; conc 0.1) | Hoechst 33342 nuclear staining score, H460 ([1]; conc 0.3) | Hoechst 33342 nuclear staining score, H460 ([1]; conc 1) | Hoechst 33342 nuclear staining score, H460 ([1]; conc 3) | Hoechst 33342 nuclear staining score, HeLa ([1]; conc 0.1) | Hoechst 33342 nuclear staining score, HeLa ([1]; conc 0.3) | Hoechst 33342 nuclear staining score, HeLa ([1]; conc 1) | Hoechst 33342 nuclear staining score, HeLa ([1]; conc 3) | Hoechst 33342 nuclear staining score, Jily ([1]; conc 0.1) | Hoechst 33342 nuclear staining score, Jily ([1]; conc 0.3) | Hoechst 33342 nuclear staining score, Jily ([1]; conc 1) | Hoechst 33342 nuclear staining score, Jily ([1]; conc 3) | Hoechst 33342 nuclear staining score, Jurkat ([1]; conc 0.1) | Hoechst 33342 nuclear staining score, Jurkat ([1]; conc 0.3) | Hoechst 33342 nuclear staining score, Jurkat ([1]; conc 1) | Hoechst 33342 nuclear staining score, Jurkat ([1]; conc 3) | Hoechst 33342 nuclear staining score, MRC5 ([1]; conc 0.1) | Hoechst 33342 nuclear staining score, MRC5 ([1]; conc 0.3) | Hoechst 33342 nuclear staining score, MRC5 ([1]; conc 1) | Hoechst 33342 nuclear staining score, MRC5 ([1]; conc 3) | also measured
1 | COc1ccc(S(=O)(=O)n2cc(CNc3ccc(N4CCOCC4)cc3)cc2-c2ccc(OC)cc2OC)cc1 [Example 96] | 0 | 0 | 0 | 0 | 0 | 0 | 0 | 0 | 0 | 0 | 0 | 1 (weak activity comprising less than 50% of the cells) | 0 | 0 | 0 | 0 | 0 | 0 | 0 | 0 | Hoechst 33342 nuclear staining score, PBLs ([1]; conc 0.1): 0; Hoechst 33342 nuclear staining score, PBLs ([1]; conc 0.3): 0; Hoechst 33342 nuclear staining score, PBLs ([1]; conc 1): 0; Hoechst 33342 nuclear staining score, PBLs ([1]; conc 3): 0; IC50 (Jurkat): > 1000 nM; IC50 (HeLa): > 1000 nM; IC50 (Jily): > 1000 nM; IC50 (MRC5): > 1000 nM
2 | COc1ccc(S(=O)(=O)n2cc(CNc3ccc(N4CCOCC4)cc3)cc2-c2ccccc2OC)cc1 [Example 97] | 0 | 0 | 0 | 0 | 0 | 0 | 0 | 0 | 0 | 0 | 0 | 0 | 0 | 0 | 0 | 0 | 0 | 0 | 0 | 0 | Hoechst 33342 nuclear staining score, PBLs ([1]; conc 0.1): 0; Hoechst 33342 nuclear staining score, PBLs ([1]; conc 0.3): 0; Hoechst 33342 nuclear staining score, PBLs ([1]; conc 1): 0; Hoechst 33342 nuclear staining score, PBLs ([1]; conc 3): 0; IC50 (Jurkat): > 1000 nM; IC50 (HeLa): > 1000 nM; IC50 (Jily): > 1000 nM; IC50 (MRC5): > 1000 nM
3 | COc1ccc(S(=O)(=O)n2cc(CNc3ccc(N4CCOCC4)cc3)cc2-c2cccc(OC)c2)cc1 [Example 98] | 0 | 0 | 0 | 0 | 0 | 0 | 0 | 0 | 0 | 0 | 0 | 0 | 0 | 0 | 0 | 1 (weak activity comprising less than 50% of the cells) | 0 | 0 | 0 | 0 | Hoechst 33342 nuclear staining score, PBLs ([1]; conc 0.1): 0; Hoechst 33342 nuclear staining score, PBLs ([1]; conc 0.3): 0; Hoechst 33342 nuclear staining score, PBLs ([1]; conc 1): 0; Hoechst 33342 nuclear staining score, PBLs ([1]; conc 3): 0; IC50 (Jurkat): > 1000 nM; IC50 (HeLa): > 1000 nM; IC50 (Jily): > 1000 nM; IC50 (MRC5): > 1000 nM
4 | COc1ccc(S(=O)(=O)n2cc(CNc3ccc(N4CCOCC4)cc3)cc2-c2c(OC)cc(OC)cc2OC)cc1 [Example 99] | 0 | 0 | 2 (strong activity comprising more than 50% of the cells) | 2 (strong activity comprising more than 50% of the cells) | 0 | 0 | 2 (strong activity comprising more than 50% of the cells) | 2 (strong activity comprising more than 50% of the cells) | 0 | 0 | 2 (strong activity comprising more than 50% of the cells) | 2 (strong activity comprising more than 50% of the cells) | 0 | 0 | 2 (strong activity comprising more than 50% of the cells) | 2 (strong activity comprising more than 50% of the cells) | 0 | 0 | 1 (weak activity comprising less than 50% of the cells) | 1 (weak activity comprising less than 50% of the cells) | Hoechst 33342 nuclear staining score, PBLs ([1]; conc 0.1): 0; Hoechst 33342 nuclear staining score, PBLs ([1]; conc 0.3): 0; Hoechst 33342 nuclear staining score, PBLs ([1]; conc 1): 0; Hoechst 33342 nuclear staining score, PBLs ([1]; conc 3): 0; IC50 (Jurkat): < 1000 nM; IC50 (HeLa): < 1000 nM; IC50 (Jily): < 1000 nM; IC50 (MRC5): > 1000 nM
5 | COc1ccc(S(=O)(=O)n2cc(-c3ccc(N)nc3)cc2-c2cc(OC)c(OC)c(OC)c2)cc1 [Example 100, 4-(2-Aminopyrid-5-yl)-1-p-methoxyphenylsulfonyl-2-(3,4,5-trimethoxyphenyl)-pyrrole] | 0 | 2 (strong activity comprising more than 50% of the cells) | 2 (strong activity comprising more than 50% of the cells) | 2 (strong activity comprising more than 50% of the cells) | 0 | 2 (strong activity comprising more than 50% of the cells) | 2 (strong activity comprising more than 50% of the cells) | 2 (strong activity comprising more than 50% of the cells) | 0 | 2 (strong activity comprising more than 50% of the cells) | 2 (strong activity comprising more than 50% of the cells) | 2 (strong activity comprising more than 50% of the cells) | 0 | 2 (strong activity comprising more than 50% of the cells) | 2 (strong activity comprising more than 50% of the cells) | 2 (strong activity comprising more than 50% of the cells) | 0 | 1 (weak activity comprising less than 50% of the cells) | 2 (strong activity comprising more than 50% of the cells) | 2 (strong activity comprising more than 50% of the cells) | Hoechst 33342 nuclear staining score, PBLs ([1]; conc 0.1): 0; Hoechst 33342 nuclear staining score, PBLs ([1]; conc 0.3): 0; Hoechst 33342 nuclear staining score, PBLs ([1]; conc 1): 0; Hoechst 33342 nuclear staining score, PBLs ([1]; conc 3): 0; IC50 (Jurkat; Homo sapiens): < 200 nM; IC50 (HeLa; Homo sapiens): < 200 nM; IC50 (Jily): < 200 nM; IC50 (MRC5; Homo sapiens): < 200 nM
6 | COc1ccc(S(=O)(=O)n2cc(-c3ccc(N)nc3)cc2-c2cc(OC)ccc2OC)cc1 [Example 101] | 0 | 2 (strong activity comprising more than 50% of the cells) | 2 (strong activity comprising more than 50% of the cells) | 2 (strong activity comprising more than 50% of the cells) | 0 | 2 (strong activity comprising more than 50% of the cells) | 2 (strong activity comprising more than 50% of the cells) | 2 (strong activity comprising more than 50% of the cells) | 0 | 2 (strong activity comprising more than 50% of the cells) | 2 (strong activity comprising more than 50% of the cells) | 2 (strong activity comprising more than 50% of the cells) | 0 | 2 (strong activity comprising more than 50% of the cells) | 2 (strong activity comprising more than 50% of the cells) | 2 (strong activity comprising more than 50% of the cells) | 0 | 2 (strong activity comprising more than 50% of the cells) | 2 (strong activity comprising more than 50% of the cells) | 2 (strong activity comprising more than 50% of the cells) | Hoechst 33342 nuclear staining score, PBLs ([1]; conc 0.1): 0; Hoechst 33342 nuclear staining score, PBLs ([1]; conc 0.3): 0; Hoechst 33342 nuclear staining score, PBLs ([1]; conc 1): 0; Hoechst 33342 nuclear staining score, PBLs ([1]; conc 3): 0; IC50 (Jurkat): < 200 nM; IC50 (HeLa): < 1000 nM; IC50 (Jily): < 200 nM; IC50 (MRC5): < 1000 nM
